The source of these data is patent US9126973B2, “Multiheteroaryl compounds as inhibitors of H-PGDS and their use for treating prostaglandin D2 mediated diseases” (Cayman Chemical Company, Incorporated, priority 2008, dated 2015).

The conditions of data set [1]: background statement with literature references; cited from earlier work.
Data set [2] concerns the target T1, H-PGDS (Homo sapiens (Human), UniProt O60760). Kind of data set: H-PGDS Fluorescence Polarization Binding Assay (FPBA). As to conditions: H-PGDS-MBP fusion enzyme, fluorescent probe, reduced glutathione 5 mM, 60-90 minutes at room temperature, 96-well format. Here is the method:
H-PGDS Fluorescence Polarization Binding Assay This assay essentially is available from Cayman Chemical Company as Catalog item #600007. The test data reported for the aforementioned Examples (H-PGDS FPBA IC50) were generated using a 96-well, instead of the 384-well, format. […] Assays were performed in 96-well microtiter plates in 100 μL of total sample volume. Excitation and emission wavelengths appropriate for the employed detection analyte were used. […] Twelve clean microfuge tubes were labeled A1 through A12. […] Dimethyl sulfoxide (50 μL) was added to each of tubes A1 through A11. The HQL-79 control solution was serially diluted by removing 50 μL from tube A12 and placing it in tube A11 with subsequent thorough mixing of the contents of tube A11. Next, 50 μL was removed from tube A11 and was placed into tube A10 with subsequent thorough mixing of the contents of tube A10. This process was repeated for tubes A9 through A2. […] A test compound may be dissolved in DMSO, ethanol, or methanol at several concentrations when the titration endpoint is unknown. […] Assay cocktail (95 μL) was added to each plate well. DMSO (5 μL) from microfuge tube A1 was added to each plate well A1 and B1. Positive control solution (5 μL) from microfuge tube A2 was added to each plate well A2 and B2. Positive control solution (5 μL) from microfuge tube A3 was added to each plate well A3 and B3. This procedure was continued until all the positive control standard dilutions were aliquoted. Test compound solutions (5 μL) were added to the wells. […] The IC50 for a particular test compound was obtained by performing a full concentration titration versus a full concentration titration of positive control. Comparison of a single concentration of a test compound to the maximum binding well provided an assessment of the relative affinity of the test compound for H-PGDS-MBP. The plate was covered and incubated for 60-90 minutes at room temperature. The FP signal is stable for at least two hours. […] The measurements were taken in the fluorescent polarization mode with the z-height set to the middle of the well and the G-factor set to 1.13 on a Tecan Safire 2 reader.
A general note: Fluorescence polarisation rises when a labelled molecule tumbles more slowly, as on binding a larger partner.

For data set [3], the target named is T1, H-PGDS. Kind of data set: H-PGDS Inhibitor Enzyme Immunoassay (EIA). It counts as biochemical. The settings on record: 25 ng H-PGDS, 40 μM PGH2, 1 mM GSH; PGD2 quantified by EIA. Here is the method:
H-PGDS Inhibitor Enzyme Immunoassay
The assay detects and measures PGD2 generated by H-PGDS. The prostanoid product is quantified via enzyme immunoassay (EIA) using a specific PGD2 antibody.
The assay is carried out by the following steps: • 1. Inhibitor screening is performed in 100 mM Tris-HCl, pH 8.0 containing 1 mM GSH, 1 mM MgCl2, 4% inhibitor/DMSO, 40 μM PGH2 and 25 ng of PGDS in a total volume of 125 μL. • 2. A reaction mixture containing 100 mM Tris-HCl, pH 8.0, 1 mM GSH, 1 mM MgCl2, 25 ng H-PGDS and 4% inhibitor or DMSO (uninhibited reaction) is preincubated at 25° C. for 10 minutes. • 3. Reactions are initiated using 5 μL of PGH2 and quenched every 15 seconds for one minute. Reactions are quenched by taking 10 μL of reaction mixture and adding to 490 μL of 100 mM phosphate buffer containing 0.1% BSA, 400 mM NaCl, 1 mM EDTA, 20 mM FeCl2, 10% 1N HCl, and 0.01% azide to prevent the non-enzymatic formation of PGD2 from PGH2. The FeCl2 serves the purpose of reducing PGH2 to 12-HHT. (Quench buffer is kept on ice at all times). • 4. Quenched samples (5 μL) are further diluted 100 fold in 495 μL of 100 mM phosphate buffer containing 0.1% BSA, 400 mM NaCl, 1 mM EDTA, and 0.01% azide for the PGD2 EIA assay. (Dilution buffers are kept on ice at all times).
The final 5000 fold diluted samples are analyzed following the protocol outlined in Cayman Chemical's commercially available PGD2 EIA kit (Cat. #512021). 50 μL of diluted sample is analyzed at least in duplicate in the EIA assay and the amount of PGD2 formed is quantified using a standard curve.

T1 sequence (O60760 whole entry, the tested form may be a part): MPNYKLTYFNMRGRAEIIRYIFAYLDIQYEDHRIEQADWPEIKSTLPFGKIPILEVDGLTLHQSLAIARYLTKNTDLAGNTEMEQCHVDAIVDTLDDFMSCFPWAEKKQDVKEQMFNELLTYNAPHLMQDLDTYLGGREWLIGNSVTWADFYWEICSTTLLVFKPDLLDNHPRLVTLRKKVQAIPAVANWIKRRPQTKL

Consider `c1ccc(C(OC2CCN(CCCc3nnn[nH]3)CC2)c2ccccc2)cc1` [HQL-79], for which the “antiallergic and antiasthmatic activity in vivo” value in data set [1] was “antiallergic and antiasthmatic activity in vivo”.

As for `Cn1c(-c2cnc(-c3ccccc3)nc2)cnc1-c1ccccc1` [Example 3, 5-(1-methyl-2-phenyl-1H-imidazol-5-yl)-2-phenylpyrimidine], the melting point is 211 °C. This compound showed a half-maximal inhibitory concentration (IC50) on H-PGDS [2] of 625 nM. Also, the IC50 against H-PGDS [3] stood at 250 nM.

With `c1ccc(-c2ncc(-c3cnc(-c4ccccn4)[nH]3)cn2)cc1` [Example 9, 2-phenyl-5-(2-(pyridin-2-yl)-1H-imidazol-5-yl)pyrimidine], the melting point is 262 °C. At H-PGDS [2], this compound gave a concentration for half-maximal inhibition (IC50) of 125 nM. For the same compound, on H-PGDS [3], the IC50 was determined as 53 nM.

For the compound `Fc1cccc(-c2ncc(-c3cnc(-c4cccnc4)[nH]3)cn2)c1` [Example 11, 2-(3-fluorophenyl)-5-(2-(pyridin-3-yl)-1H-imidazol-5yl)pyrimidine], the melting point amounted to 309 °C. The IC50 on H-PGDS [2] turned out to be 156 nM. The IC50 at H-PGDS [3] came to 41 nM.

For `c1ccc(-c2ncc(-c3cnc(-c4ccncc4)[nH]3)cn2)cc1` [Example 13, 2-phenyl-5-(2-(pyridin-4-yl)-1H-imidazol-5-yl)pyrimidine], the melting point is 300 °C. At H-PGDS [2], this compound displayed a half-maximal inhibitory concentration (IC50) of 125 nM. In addition, 75 nM corresponded to half-maximal inhibition against H-PGDS [3] (IC50).

One may read the melting point as the temperature, or range, at which the solid turns liquid. Broadly, the IC50 is the point on the concentration scale where inhibition reaches its midpoint. Read a high IC50 as a need for much substance.
